Experimental data published in patent publication US6627793B2, “Low temperature-inducible wheat WCS120 gene promoter” (Université du Québec A Montréal, priority 1998, dated 2003).

Columns and labels:
[1] = system: PKC-like activity in CA nuclear extracts; experiment: PKC activity in nuclear extracts with the PKC-specific substrate peptide MARCKS; format: biochemical, wheat
Experimental: FIGS. 5. a) to c) Analysis of endogenous kinases in nuclear extracts from non-acclimated (NA) and cold-acclimated (CA) wheat plants. a) In vitro phosphorylation of nuclear proteins. Equal amounts of nuclear proteins (10 μg) were incubated with [γ-^32P]ATP and separated by SDS-PAGE. The gel was dried and exposed to a X-ray film. b) Immunodetection of a PKCg homolog in nuclear and soluble extracts from non-acclimated (NA) and cold-acclimated (CA) plants. Equal amounts of proteins (10 μg) were separated by SDS-PAGE, blotted onto nitrocellulose membranes and probed with the anti-PKCg antibody. CA2 and CA7 indicate soluble extracts from 2 and 7 days cold-acclimated plants. c) PKC activity was measured in the nuclear extracts with the peptide MARCKS as the PKC-specific substrate and containing the indicated chemicals. […] Aliquotes of each reaction were separated by SDS-PAGE and visualized by autoradiography. PS, phosphatydylserine; DAG, diacylglycerol.
To determine the qualitative changes in the phosphorylation pattern following cold treatment, the nuclear extracts from both NA and CA plants (10 μg protein) were incubated for 5 to 40 min at 30° C. in binding buffer (Harter, K., supra) containing 1 mM MgCl2, 50 μCi [γ-^32P]ATP and 1 mM CaCl2. At specified intervals, reactions were stopped by adding one volume of 2× SDS-sample buffer and the proteins were separated by SDS-PAGE. Gels were dried, exposed to X-ray film and the signal intensity of individual bands was determined by quantitative densitometry. To accurately quantify the Ca^2+-dependent and Ca^2+-independent nuclear kinase activities, the incorporation of ^32P on histone III-S, casein or the PKC-specific substrate peptide MARCKS (Biomol; Blackshear, P. J. (1993) J. Biol. Chem. 268: 1501-1504) was determined as described elsewhere (Kitano, T., et al. (1986) Methods Enzymol. 124: 349-352). Histone III-S and casein are suitable substrates for phosphorylation assays, particularly when dealing with a crude mixture of uncharacterized protein kinases. […]

[2] = system: WCS120 family of proteins; experiment: In vivo okadaic acid treatment of wheat shoots at low temperature, western blot densitometry of WCS120 proteins; set-up: species or system wheat (Triticum aestivum L. cv Fredrick); conditions: 4° C.
Experimental: FIGS. 6. a) to c) Effect of in vivo okadaic acid treatment on the accumulation of the cold-inducible WCS120 family of proteins. Wheat seedlings were incubated at low temperature without or with different concentrations of okadaic acid (OA), and soluble proteins were extracted and separated by SDS-PAGE. a) Immunodetection of the WCS120 protein family in the soluble extracts. Following the treatment, the proteins were analyzed by western blot using the anti-WCS120 antibody. b) SDS-PAGE gel stained with Coomassie blue showing equal protein loading. c) Densitometric quantification of the individual protein bands of 50, 66 and 200 kDa of the immunoblot shown in a. The 50 kDa protein is encoded by Wcs120 gene. Values represent averages and standard deviations of the integrated intensity of the pixels for each protein band, excluding the background, from at least three independent experiments.
Wheat shoots were cut and immediately incubated in water or in the presence of the phosphatase inhibitor okadaic acid (OA) at 10, 100 or 1000 nM. The plants were left at room temperature for 4 hours to allow translocation of the inhibitor, then transferred to 4° C. for 24 hours, and the total soluble proteins were extracted as described (Limin, A. E., supra). […] The signal intensity for individual protein bands on the X-ray films was quantified with a Personal Densitometer SI (Molecular Dynamics) using the ImageQuaNT version 4.2 software. […]
To determine the role of protein phosphatases on the expression of Wcs120 gene, wheat seedlings were incubated at 4° C. in the presence of okadaic acid (a potent and specific inhibitor of protein phosphatases PP1 and PP2A) (Smith, R. D., et al. (1996) Annu. Rev. Plant. Physiol. Plant. Mol. Biol. 47:101-125). Soluble proteins were extracted and the accumulation of the WCS120 family of proteins was analyzed by quantitative densitometry of western blots. […]

[3] = 1 μM okadaic acid, densitometric analysis

## Calphostin C
[1]; 0.5 mM Calphostin C
  inhibition of MARCKS phosphorylation (32P incorporation, scintillation counting): complete inhibition
[1]; Calphostin C at 0.1 µM
  inhibition of MARCKS phosphorylation: did not significantly inhibit

## C=C1[C@@H](O)[C@@H]2O[C@]3(CC[C@H](/C=C/[C@@H](C)[C@@H]4CC(C)=C[C@@]5(O[C@H](C[C@@](C)(O)C(=O)O)CC[C@H]5O)O4)O3)CC[C@H]2O[C@@H]1[C@@H](O)C[C@H](C)[C@H]1O[C@@]2(CCCCO2)CC[C@H]1C [okadaic acid]
[2]; [3]
  increase of the 50 and 66 kDa proteins with respect to plants exposed to low temperature without inhibitor: 2.2 fold
  increase of the 200 kDa protein with respect to plants exposed to low temperature without inhibitor: 9 fold
[2]; several concentrations of OA (10, 100 or 1000 nM)
  accumulation of the 50, 66 and 200 kDa WCS120 proteins at low temperature: significantly stimulated

## O=C(O)CN(CCOCCOCCN(CC(=O)O)CC(=O)O)CC(=O)O [EGTA]
[1]; 0.5 mM EGTA
  inhibition of the phosphorylation of MARCKS: only partial inhibition
